Tested on: polyclonal serum raised against the native antigen
Experiment: Reaction of peptide with polyclonal serum raised against the native antigen
Type: binding, rabbits
Details: rabbit serum

ELVALSNSITAQQMAMMAZASPA [Peptide (b), Tryptic peptide of the H. contortus antigen purified by HPLC]
reaction with polyclonal serum raised against the native antigen: reacts strongly

From patent US5650154A (priority 1989, dated 1997)
